Test: pH of the filtrated solutions (pH indication paper)
Assay type: physicochemical
Settings: pH of the filtrated solution
Procedure: (§1) Samples are filtered and diluted (in a mixture of acetonitrile/water (1/1)) for LC analysis. Solubilities are calculated with the use of a calibration line. Furthermore, the pH values of the filtrated solutions are determined using pH indication paper.

Row | SMILES | pH
1 | CN1C(=O)c2c(nn(Cc3ccc(-c4cccc(F)n4)cc3)c2Nc2ccccc2)N2C1=N[C@@H]1CCC[C@@H]12.O=C(O)C(=O)O [Oxalate Salt 1] | 4
2 | CN1C(=O)c2c(nn(Cc3ccc(-c4cccc(F)n4)cc3)c2Nc2ccccc2)N2C1=N[C@@H]1CCC[C@@H]12.O=C(O)C(Cl)Cl [Dichloroacetate Salt 1] | 4-5
3 | CN1C(=O)c2c(nn(Cc3ccc(-c4cccc(F)n4)cc3)c2Nc2ccccc2)N2C1=N[C@@H]1CCC[C@@H]12.O=C(O)c1ccccc1 [Benzoate Salt 1] | 5
4 | CN1C(=O)c2c(nn(Cc3ccc(-c4cccc(F)n4)cc3)c2Nc2ccccc2)N2C1=N[C@@H]1CCC[C@@H]12.O=C(O)C[C@H](O)C(=O)O [Malate Salt 1] | 4
5 | CN1C(=O)c2c(nn(Cc3ccc(-c4cccc(F)n4)cc3)c2Nc2ccccc2)N2C1=N[C@@H]1CCC[C@@H]12.O=C(O)C(O)C(O)C(=O)O [Tartrate Salt 1] | 4-5
6 | CN1C(=O)c2c(nn(Cc3ccc(-c4cccc(F)n4)cc3)c2Nc2ccccc2)N2C1=N[C@@H]1CCC[C@@H]12.O=C(O)c1ccc2ccccc2c1O [Xinafoate Salt 3] | 7
7 | CN1C(=O)c2c(nn(Cc3ccc(-c4cccc(F)n4)cc3)c2Nc2ccccc2)N2C1=N[C@@H]1CCC[C@@H]12.O=C(O)CCC(=O)O [Succinate Salt 2] | 4
8 | CN1C(=O)c2c(nn(Cc3ccc(-c4cccc(F)n4)cc3)c2Nc2ccccc2)N2C1=N[C@@H]1CCC[C@@H]12.Cl [HCl Salt 1] | 4
9 | CN1C(=O)c2c(nn(Cc3ccc(-c4cccc(F)n4)cc3)c2Nc2ccccc2)N2C1=N[C@@H]1CCC[C@@H]12.O=C(O)[C@@H](O)[C@H](O)[C@H](O)[C@@H](O)C(=O)O [Galactarate Salt 1] | 5
10 | CN1C(=O)c2c(nn(Cc3ccc(-c4cccc(F)n4)cc3)c2Nc2ccccc2)N2C1=N[C@@H]1CCC[C@@H]12.O=C(O)C(O)c1ccccc1 [Mandelate Salt 2] | 4
11 | CN1C(=O)c2c(nn(Cc3ccc(-c4cccc(F)n4)cc3)c2Nc2ccccc2)N2C1=N[C@@H]1CCC[C@@H]12.O=C(O)c1ccccc1O [Salicylate Salt 1] | 5
12 | CN1C(=O)c2c(nn(Cc3ccc(-c4cccc(F)n4)cc3)c2Nc2ccccc2)N2C1=N[C@@H]1CCC[C@@H]12.Cl [HCl Salt 4] | 4
13 | CN1C(=O)c2c(nn(Cc3ccc(-c4cccc(F)n4)cc3)c2Nc2ccccc2)N2C1=N[C@@H]1CCC[C@@H]12.O=P(O)(O)O [Phosphate Salt Control] | 5
14 | CN1C(=O)c2c(nn(Cc3ccc(-c4cccc(F)n4)cc3)c2Nc2ccccc2)N2C1=N[C@@H]1CCC[C@@H]12.O=C(O)C(O)c1ccccc1 [Mandelate Salt 1] | 2
15 | CN1C(=O)c2c(nn(Cc3ccc(-c4cccc(F)n4)cc3)c2Nc2ccccc2)N2C1=N[C@@H]1CCC[C@@H]12.O=S(=O)(O)c1ccccc1 [Besylate Salt 1] | 1
16 | CC1(C)C2CCC1(CS(=O)(=O)O)C(=O)C2.CN1C(=O)c2c(nn(Cc3ccc(-c4cccc(F)n4)cc3)c2Nc2ccccc2)N2C1=N[C@@H]1CCC[C@@H]12 [Camsylate Salt 2] | 1
17 | CN1C(=O)c2c(nn(Cc3ccc(-c4cccc(F)n4)cc3)c2Nc2ccccc2)N2C1=N[C@@H]1CCC[C@@H]12.O=S(=O)(O)c1cccc2c(S(=O)(=O)O)cccc12 [Napadisylate Salt 1] | 1
18 | CN1C(=O)c2c(nn(Cc3ccc(-c4cccc(F)n4)cc3)c2Nc2ccccc2)N2C1=N[C@@H]1CCC[C@@H]12.O=C(O)CCCCC(=O)O [Adipate Salt 1] | 4
19 | CN1C(=O)c2c(nn(Cc3ccc(-c4cccc(F)n4)cc3)c2Nc2ccccc2)N2C1=N[C@@H]1CCC[C@@H]12.Cl [HCl Salt 2] | 4-5
20 | CN1C(=O)c2c(nn(Cc3ccc(-c4cccc(F)n4)cc3)c2Nc2ccccc2)N2C1=N[C@@H]1CCC[C@@H]12.O=C(O)CCC(=O)O [Succinate Salt 1] | 4
21 | CN1C(=O)c2c(nn(Cc3ccc(-c4cccc(F)n4)cc3)c2Nc2ccccc2)N2C1=N[C@@H]1CCC[C@@H]12.O=C(O)C(=O)O [Oxalate Salt 3] | 1
22 | CCCCCCCCCCCCCCCC(=O)O.CN1C(=O)c2c(nn(Cc3ccc(-c4cccc(F)n4)cc3)c2Nc2ccccc2)N2C1=N[C@@H]1CCC[C@@H]12 [Palmitate Salt 1] | 5-6
23 | CN1C(=O)c2c(nn(Cc3ccc(-c4cccc(F)n4)cc3)c2Nc2ccccc2)N2C1=N[C@@H]1CCC[C@@H]12.Cc1ccc(S(=O)(=O)O)cc1 [Tosylate Salt 2] | 5
24 | CN1C(=O)c2c(nn(Cc3ccc(-c4cccc(F)n4)cc3)c2Nc2ccccc2)N2C1=N[C@@H]1CCC[C@@H]12.O=C(O)c1ccc2ccccc2c1O [Xinafoate Salt 1] | 7

Row | SMILES | pH
25 | CN1C(=O)c2c(nn(Cc3ccc(-c4cccc(F)n4)cc3)c2Nc2ccccc2)N2C1=N[C@@H]1CCC[C@@H]12.O=C(O)C(=O)O [Oxalate Salt 2] | 1
26 | CN1C(=O)c2c(nn(Cc3ccc(-c4cccc(F)n4)cc3)c2Nc2ccccc2)N2C1=N[C@@H]1CCC[C@@H]12.O=C(O)c1ccc2ccccc2c1O [Xinafoate Salt 2] | 7
27 | CCC(=O)O.CN1C(=O)c2c(nn(Cc3ccc(-c4cccc(F)n4)cc3)c2Nc2ccccc2)N2C1=N[C@@H]1CCC[C@@H]12 [Propionate Salt 1] | 5
28 | CN1C(=O)c2c(nn(Cc3ccc(-c4cccc(F)n4)cc3)c2Nc2ccccc2)N2C1=N[C@@H]1CCC[C@@H]12.O=S(=O)(O)O [Sulfate Salt 1] | 1
29 | CN1C(=O)c2c(nn(Cc3ccc(-c4cccc(F)n4)cc3)c2Nc2ccccc2)N2C1=N[C@@H]1CCC[C@@H]12.O=S(=O)(O)CCS(=O)(=O)O [Edisylate Salt 1] | 1
30 | CN1C(=O)c2c(nn(Cc3ccc(-c4cccc(F)n4)cc3)c2Nc2ccccc2)N2C1=N[C@@H]1CCC[C@@H]12.O=C(O)c1cccnc1 [Nicotinate Salt 1] | 5
31 | CCCCCCCCCCCC(=O)O.CN1C(=O)c2c(nn(Cc3ccc(-c4cccc(F)n4)cc3)c2Nc2ccccc2)N2C1=N[C@@H]1CCC[C@@H]12 [Laurate Salt 1] | 5
32 | CN1C(=O)c2c(nn(Cc3ccc(-c4cccc(F)n4)cc3)c2Nc2ccccc2)N2C1=N[C@@H]1CCC[C@@H]12.O=C(O)c1ccccc1O [Salicylate Salt 2] | 4-5
33 | CN1C(=O)c2c(nn(Cc3ccc(-c4cccc(F)n4)cc3)c2Nc2ccccc2)N2C1=N[C@@H]1CCC[C@@H]12.Cl [HCl Salt 3] | 3
34 | CN1C(=O)c2c(nn(Cc3ccc(-c4cccc(F)n4)cc3)c2Nc2ccccc2)N2C1=N[C@@H]1CCC[C@@H]12.CN1C(=O)c2c(nn(Cc3ccc(-c4cccc(F)n4)cc3)c2Nc2ccccc2)N2C1=N[C@@H]1CCC[C@@H]12.O=C(O)CCCCC(=O)O [Adipate Salt 2] | 4-5
35 | CN1C(=O)c2c(nn(Cc3ccc(-c4cccc(F)n4)cc3)c2Nc2ccccc2)N2C1=N[C@@H]1CCC[C@@H]12.O=C(O)CCC(=O)C(=O)O [Oxo-glutarate Salt 1] | 3
36 | CN1C(=O)c2c(nn(Cc3ccc(-c4cccc(F)n4)cc3)c2Nc2ccccc2)N2C1=N[C@@H]1CCC[C@@H]12.O=C(O)C(F)(F)F [Trifluoroacetate Salt 1] | 7
37 | CCCCCCCC(=O)O.CN1C(=O)c2c(nn(Cc3ccc(-c4cccc(F)n4)cc3)c2Nc2ccccc2)N2C1=N[C@@H]1CCC[C@@H]12 [Caprylate Salt 1] | 5
38 | CN1C(=O)c2c(nn(Cc3ccc(-c4cccc(F)n4)cc3)c2Nc2ccccc2)N2C1=N[C@@H]1CCC[C@@H]12.O=C(O)c1ccncc1 [Isonicotinate Salt 1] | 5
39 | CN1C(=O)c2c(nn(Cc3ccc(-c4cccc(F)n4)cc3)c2Nc2ccccc2)N2C1=N[C@@H]1CCC[C@@H]12.O=C(O)CCCCC(=O)O [Adipate Salt 3] | 4-5
40 | CC(O)C(=O)O.CN1C(=O)c2c(nn(Cc3ccc(-c4cccc(F)n4)cc3)c2Nc2ccccc2)N2C1=N[C@@H]1CCC[C@@H]12 [Lactate Salt 1] | 4-5
41 | CN1C(=O)c2c(nn(Cc3ccc(-c4cccc(F)n4)cc3)c2Nc2ccccc2)N2C1=N[C@@H]1CCC[C@@H]12.CN1C(=O)c2c(nn(Cc3ccc(-c4cccc(F)n4)cc3)c2Nc2ccccc2)N2C1=N[C@@H]1CCC[C@@H]12.O=C(O)/C=C/C(=O)O [Fumarate Salt 1] | 2
42 | CCCCCC(=O)O.CN1C(=O)c2c(nn(Cc3ccc(-c4cccc(F)n4)cc3)c2Nc2ccccc2)N2C1=N[C@@H]1CCC[C@@H]12 [Caproate Salt 1] | 5
43 | CN1C(=O)c2c(nn(Cc3ccc(-c4cccc(F)n4)cc3)c2Nc2ccccc2)N2C1=N[C@@H]1CCC[C@@H]12.O=C(O)c1cc(=O)[nH]c(=O)[nH]1.O=C(O)c1cc(=O)[nH]c(=O)[nH]1 [Orotate Salt 1] | 5
44 | CCS(=O)(=O)O.CN1C(=O)c2c(nn(Cc3ccc(-c4cccc(F)n4)cc3)c2Nc2ccccc2)N2C1=N[C@@H]1CCC[C@@H]12 [Esylate Salt 1] | 5
45 | CN1C(=O)c2c(nn(Cc3ccc(-c4cccc(F)n4)cc3)c2Nc2ccccc2)N2C1=N[C@@H]1CCC[C@@H]12.Nc1ccc(C(=O)O)c(O)c1 [Aminosalicylate Salt 1] | 5
46 | CN1C(=O)c2c(nn(Cc3ccc(-c4cccc(F)n4)cc3)c2Nc2ccccc2)N2C1=N[C@@H]1CCC[C@@H]12.Cc1ccc(S(=O)(=O)O)cc1 [Tosylate Salt 1] | 1
47 | CC1(C)C2CCC1(CS(=O)(=O)O)C(=O)C2.CN1C(=O)c2c(nn(Cc3ccc(-c4cccc(F)n4)cc3)c2Nc2ccccc2)N2C1=N[C@@H]1CCC[C@@H]12 [Camsylate Salt 1] | 1
48 | CN1C(=O)c2c(nn(Cc3ccc(-c4cccc(F)n4)cc3)c2Nc2ccccc2)N2C1=N[C@@H]1CCC[C@@H]12.CS(=O)(=O)O [Mesylate Salt 1] | 5

Same assay, conditions: pH of the filtrated solution, listed as 4-acetamido-benzoate Salt 1

Row | SMILES | pH
49 | CC(=O)Nc1ccc(C(=O)O)cc1.CN1C(=O)c2c(nn(Cc3ccc(-c4cccc(F)n4)cc3)c2Nc2ccccc2)N2C1=N[C@@H]1CCC[C@@H]12 [Acetamido Benzoate Salt 1] | 5

Same assay, conditions: pH of the filtrated solution, listed as 4-acetamido-benzoate Salt 2

Row | SMILES | pH
50 | CC(=O)Nc1ccc(C(=O)O)cc1.CN1C(=O)c2c(nn(Cc3ccc(-c4cccc(F)n4)cc3)c2Nc2ccccc2)N2C1=N[C@@H]1CCC[C@@H]12 [Acetamido Benzoate Salt 2] | 4

Test: Aqueous solubility of the salt crystals (shaking in water for 24 hours, LC analysis)
Assay type: physicochemical
Settings: appearance of the sample after shaking in water for 24 hours (Slurry or Clear)
Procedure: as §1

Row | SMILES | Appearance
51 | CN1C(=O)c2c(nn(Cc3ccc(-c4cccc(F)n4)cc3)c2Nc2ccccc2)N2C1=N[C@@H]1CCC[C@@H]12.Nc1ccc(C(=O)O)c(O)c1 [Aminosalicylate Salt 1] | Slurry

Source: US20250129087A1, “SALT CRYSTALS” (INTRA-CELLULAR THERAPIES, INC., priority 2022, published 2025)
